Experimental data from patent US11713318B2, “Short conjugated oligoelectrolytes and uses thereof” (The Regents Of The University Of California, priority 2018, dated 2023).

Tests used:
[1] = tested on: K. pneumoniae CDC0010 (MDR); experiment: MIC against resistant strains, Tables 5a-5d; type: cell-based; details: Klebsiella pneumoniae, n = 3
Experimental: (§1) Compounds described herein were evaluated for growth inhibition against a variety of bacterial species, including strains that have developed resistance to common antibacterial treatments, according to the procedure described herein, or by analogous procedures known to those skilled in the art. Resistant bacterial strains used for compound testing include methicillin-resistant S. aureus (MRSA), vancomycin resistant Enterococci (VRE) and various multi-drug resistant (MDR) strains commonly associated with hospital-acquired (nosocomial) infections, including, but not limited to A. baumannii, K. pnuemoniae, and E. cloacae.

[2] = tested on: S. aureus ATCC 33591 (MRSA); experiment: MIC against resistant strains, Tables 5a-5d; type: cell-based; details: Staphylococcus aureus, n = 3
Experimental: as §1

[3] = tested on: K. pneumoniae ATCC BAA-2473 (MDR); experiment: MIC against resistant strains, Tables 5a-5d; type: cell-based; details: Klebsiella pneumoniae, ATCCBAA2473, n = 3
Experimental: as §1

E. faecium 1674620 (VRE) = experiment: MIC against resistant strains, Tables 5a-5d; type: cell-based; details: Enterococcus faecium, n = 3
Experimental: as §1

E. coli ATCC25922 (WT) = experiment: MIC against resistant strains, Tables 5a-5d; type: cell-based; details: Escherichia coli, n = 3
Experimental: as §1

[4] = tested on: A. baumannii 1674627 (MDR); experiment: MIC against resistant strains, Tables 5a-5d; type: cell-based; details: Acinetobacter baumannii, n = 3
Experimental: as §1

[5] = tested on: E. cloacae 1744299 (ESBL); experiment: MIC against resistant strains, Tables 5a-5d; type: cell-based; details: Enterobacter cloacae, n = 3
Experimental: as §1

[6] = tested on: P. aeruginosa CDC0248 (MDR); experiment: MIC against resistant strains, Tables 5a-5d; type: cell-based; details: Pseudomonas aeruginosa, n = 3
Experimental: as §1

J774 (ATCC TIB-67) cells = experiment: Cytotoxicity, MTT assay; type: cell-based; details: Mus musculus, MTT, 24 hours incubation, read-out: IC50
Experimental: (§2) Before removing the frozen cell stocks from liquid nitrogen, culture medium was pre-warmed to 37° C. The frozen tube was then removed from liquid nitrogen and placed into a 37° C. water bath and shaken gently to thaw the cell stock as quickly as possible. A small portion of the pre-warmed culture medium was added to the cell solution. The cell suspension was then centrifuged at 1000 r/min for 3 minutes. The supernatant was discarded and the cells were resuspended in fresh culture medium.
(§3) NIH 3T3 (ATCC CRL-1658) and Hep G2 (ATCC HB-8065) cells were cultured with DMEM+10% FBS in 100 mm dishes. Cells were lifted for subculture or testing when confluence reached ˜60% by treating with 1× trypsin (incubated for 3 min at 37° C.). J774 (ATCC TIB-67) cells were cultured with DMEM+10% FBS in 100 mm dishes. Cells were lifted for subculture or testing when confluence reached ˜80% using a cell scraper. RAW264.7 (ATCC TIB-71) cells were cultured with DMEM+10% heat-inactivated FBS+1% pen/strep in T75 flasks. Cells were lifted for subculture or testing when confluence reached ˜80% using a cell scraper.
(§4) • 1. Cells were lifted and resuspended in culture medium. The number of cells in the cell suspension was determined using an auto-cell counter: 10 μL of the cell suspension was mixed with 10 μL 1× trypan blue (filtered with 0.2 μm PES filter) and the mixture was loaded onto a cell counting slide. Based on the concentration of viable cells, the cell suspension was further diluted to achieve the desired density. • 2. Cells were seeded in 96 well plates by adding 100 μL final cell suspension column-by-column using a multichannel pipette (5000 cells/well for NIH 3T3, 10000 cells/well for Hep G2, J774 and RAW264.7). The outer wells were block with PBS to reduce the effects of evaporation. One column was filled with only culture medium as a blank. Cells were incubated overnight before adding the test articles. • 3. Test articles were dissolved in 1×PBS (or DMSO) to obtain stocks solution. Stock solutions were pre-warmed before use. […] Serial dilutions (2-fold) of the 10× solutions were made in sterile culture tubes by diluting in 1×PBS (8 dilutions to yield 9 test concentrations). 900 μL of culture media was added to each tube to obtain final drug solution containing 10% PBS (or less than 1% DMSO) for each experimental group. • 4. The original culture medium was gently removed from the 96-well plates using a pipette. 100 μL of the test article solutions prepared in Step 3 were added to rows 2-7 of each column to obtain six replicates for each concentration. Plates were then incubated for 24 hours. • 5. MTT solutions were prepared by dissolving commercial MTT powder in 1×PBS to a concentration of 5 mg/mL. After passing through a 0.22 μm PES filter, the MTT solution was divided into 1 mL portions in sterile centrifuge tubes and stored at −20° C. • 6. MTT stock solutions were removed from the freezer to thaw at room temperature. Before adding MTT solutions, cell cultures were visually inspected and imaged using a microscope (to use as a comparison with MTT results). 10 μL of the 5 mg/mL MTT solution was added to each well and the plate was incubated for 4 hours. • 7. After 4 h incubation, the culture medium/MT solution was removed gently using a pipette. 100 μL of DMSO was added to each well using a multichannel pipette. The 96-well plates were analyzed in a plate reader using the following method: shake for 5 minutes, wait for 30 seconds, and measure absorbance at 570 nm. • 8. Data processing: The average of background Abg was calculated from the blank column. All other data was first treated by subtracting Abg. The average A. and standard deviation Se of each experimental group and the average Ac and standard deviation Sc for control group (with pure culture medium incubation) were then calculated. The cell viability was determined as Ae/Ac×100% and corresponding error as Se/Ae×100%. Significant outliers in any experimental or control group were removed. […]

[7] = tested on: NIH 3T3 (ATCC CRL-1658) cells; experiment: Cytotoxicity, MTT assay; type: cell-based; details: Mus musculus, NIH3T3; NIH 3T3; MTT, 24 hours incubation; read-out: IC50
Experimental: as §2, §3, §4

[8] = tested on: Hep G2 (ATCC HB-8065) cells; experiment: Cytotoxicity, MTT assay; type: cell-based; details: Homo sapiens, HepG2, 24 h, Hep G2; MTT, 24 hours incubation; read-out: IC50
Experimental: as §2, §3, §4

E. coli K12 (ATCC 47076) = experiment: MIC broth microdilution method, Table 3; details: Escherichia coli, ATCC47076
Hep G2 cells = experiment: Cytotoxicity tested by Eurofins Pharma Discovery Services; type: cell-based; details: Homo sapiens, HepG2; Hep G2; data provided by Eurofins; read-out: IC50
[9] = tested on: S. epidermidis (ATCC 14990); experiment: MIC broth microdilution method, Table 3; details: Staphylococcus epidermidis, ATCC14990
[10] = tested on: K. aerogenes (ATCC 13048); experiment: MIC broth microdilution method, Table 3; details: Klebsiella aerogenes, ATCC13048

Compound	MIC [1]	MIC [2]	MIC [3]	MIC (E. faecium 1674620 (VRE))	MIC (E. coli ATCC25922 (WT))	MIC [4]	MIC [5]	MIC [6]	IC50 (J774 (ATCC TIB-67) cells)	IC50 [7]	IC50 [8]	MIC (E. coli K12 (ATCC 47076))	IC50 (Hep G2 cells)	MIC [9]	MIC [10]
CCCCCC[N+](C)(C)CCCCCCOc1cc(/C=C/c2cc(OCCCCCC[N+](C)(C)CCCCCC)cc(OCCCCCC[N+](C)(C)CCCCCC)c2)cc(OCCCCCC[N+](C)(C)CCCCCC)c1 [Formula E]	4 µg/mL	0.5 µg/mL	2 µg/mL	0.25 µg/mL	1 µg/mL	4 µg/mL	2 µg/mL	8 µg/mL	2.5 µg/mL	10.4 µg/mL	7.3 µg/mL	4 µg/mL	5.6 µg/mL	4 µg/mL	8 µg/mL
C[N+](C)(C)CCCCOc1cc(/C=C/c2ccc(/C=C/c3cc(OCCCC[N+](C)(C)C)cc(OCCCC[N+](C)(C)C)c3)cc2)cc(OCCCC[N+](C)(C)C)c1.[I-].[I-].[I-].[I-] [Formula F]	64 µg/mL	2 µg/mL	32 µg/mL	8 µg/mL	8 µg/mL	64 µg/mL	8 µg/mL	> 64 µg/mL	> 128 µg/mL	> 128 µg/mL	> 1020 µg/mL	32 µg/mL	> 324 µg/mL	2 µg/mL	32 µg/mL
